For 17 molecules, DC50 and Dmax results are on record in patent US11986532B2 (Arvinas Operations, Inc., priority 2021, dated 2024).

The target of this experiment is T1, BCL6 (Homo sapiens, UniProt P41182).
T1 construct: endogenous in cells; host or cells: T47D breast cancer epithelial cells
Kind of experiment: Immunofluorescence protocol for high content imaging of BCL6 (degradation) in T47D cells, 3 days compound treatment. Type of experiment: cell-based. Particulars: T47D cells, 3 days compound treatment; for DC50: read-out: Mean DC50 (nM)* category; for Dmax: read-out: Mean Dmax (%)** category. The essentials:
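High content immunofluorescence imaging (10×, 4 fields/well) of BCL6 using rabbit primary antibody, Alexa-488 secondary, cell mask and Hoechst nuclear stain after PFA fixation. Before staining, T47D cells (7K/well) were exposed for 3 days at 37° C to 3-fold serial dilutions of compound, top final concentration 0.1 or 1 μM.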

Where a name gives a salt, the structure may show the parent alone.

With `CNC(=O)COc1cc2c(F)c(Nc3nc(N4CCC(CN5CCC6(CC5)CN(c5ccc7c(c5)CN(C5CCC(=O)NC5=O)C7=O)C6)CC4)ncc3Cl)ccc2n(C(C)C)c1=O` (stereo not shown) [Compound 161, 2-{[6-({5-chloro-2-[4-({2-[2-(2,6-dioxopiperidin-3-yl)-1-oxo-2,3-dihydro-1H-isoindol-5-yl]-2,7-diazaspiro[3.5]nonan-7-yl}methyl)piperidin-1-yl]pyrimidin-4-yl}amino)-5-fluoro-2-oxo-1-(propan-2-yl)-1,2-dihydroquinolin-3-yl]oxy}-N-methylacetamide], the DC50 is under 10 nM and the Dmax was at least 70%.
`CNC(=O)COc1cc2cc(Nc3nc(N4CCC(CN5CCC6(CC5)CN(c5ccc7c(c5F)CN(C5CCC(=O)NC5=O)C7=O)C6(C)C)CC4)ncc3Cl)ccc2n(C(C)C)c1=O` (stereo not shown) [Compound 162, 2-{[6-({5-chloro-2-[4-({2-[2-(2,6-dioxopiperidin-3-yl)-4-fluoro-1-oxo-2,3-dihydro-1H-isoindol-5-yl]-1,1-dimethyl-2,7-diazaspiro[3.5]nonan-7-yl}methyl)piperidin-1-yl]pyrimidin-4-yl}amino)-2-oxo-1-(propan-2-yl)-1,2-dihydroquinolin-3-yl]oxy}-N-methylacetamide]: the 50% degradation concentration (DC50) is under 10 nM and the Dmax was at least 70%.
For the molecule `CNC(=O)COc1cc2cc(Nc3nc(N4CCC(O[C@H]5C[C@H](N6CCC(c7ccc8c(c7Cl)CN(C7CCC(=O)NC7=O)C8=O)CC6)C5)CC4)ncc3Cl)ccc2n(C(C)C)c1=O` (stereo partly shown) [Compound 163, 2-({6-[(5-chloro-2-{4-[(1r,3r)-3-{4-[4-chloro-2-(2,6-dioxopiperidin-3-yl)-1-oxo-2,3-dihydro-1H-isoindol-5-yl]piperidin-1-yl}cyclobutoxy]piperidin-1-yl}pyrimidin-4-yl)amino]-2-oxo-1-(propan-2-yl)-1,2-dihydroquinolin-3-yl}oxy)-N-methylacetamide], the 50% degradation concentration (DC50) is under 10 nM and the maximal degradation (Dmax) was at least 70%.
For the molecule `CNC(=O)COc1cc2cc(Nc3nc(N4CCC(O[C@H]5C[C@H](N6CCN(c7ccc8c(c7F)CN(C7CCC(=O)NC7=O)C8=O)CC6)C5)CC4)ncc3Cl)ccc2n(C(C)C)c1=O` (stereo partly shown) [Compound 164, 2-[[6-[[5-chloro-2-[4-[3-[4-[2-(2,6-dioxo-3-piperidyl)-4-fluoro-1-oxo-isoindolin-5-yl]piperazin-1-yl]cyclobutoxy]-1-piperidyl]pyrimidin-4-yl]amino]-1-isopropyl-2-oxo-3-quinolyl]oxy]-N-methyl-acetamide formate], the DC50 was under 10 nM and the Dmax was at least 70%.
Regarding `CNC(=O)COc1cc2cc(Nc3nc(N4CCC(O[C@H]5C[C@H](N6CCC(c7ccc8c(c7C)C(=O)N(C7CCC(=O)NC7=O)C8=O)CC6)C5)CC4)ncc3Cl)ccc2n(C(C)C)c1=O` (stereo partly shown) [Compound 167, 2-({6-[(5-chloro-2-{4-[(1r,3r)-3-{4-[2-(2,6-dioxopiperidin-3-yl)-4-methyl-1,3-dioxo-2,3-dihydro-1H-isoindol-5-yl]piperidin-1-yl}cyclobutoxy]piperidin-1-yl}pyrimidin-4-yl)amino]-2-oxo-1-(propan-2-yl)-1,2-dihydroquinolin-3-yl}oxy)-N-methylacetamide], the 50% degradation concentration (DC50) was under 10 nM and the greatest degradation seen (Dmax) is at least 70%.
On to `CNC(=O)COc1cc2cc(Nc3nc(N4CCC(CN5CCC6(CC5)CC5(CN(c7ccc8c(c7)CN(C7CCC(=O)NC7=O)C8=O)C5)C6)CC4)ncc3Cl)ccc2n(C(C)C)c1=O` (stereo not shown) [Compound 168, 2-{[6-({5-chloro-2-[4-({2-[2-(2,6-dioxopiperidin-3-yl)-1-oxo-2,3-dihydro-1H-isoindol-5-yl]-2,9-diazadispiro[3.1.5^6.1^4]dodecan-9-yl}methyl)piperidin-1-yl]pyrimidin-4-yl}amino)-2-oxo-1-(propan-2-yl)-1,2-dihydroquinolin-3-yl]oxy}-N-methylacetamide], for which the DC50 was under 10 nM and the Dmax is 50 to 70%.
The corresponding values for `CNC(=O)COc1cc2c(F)c(Nc3nc(N4CCN(CC5CCC6(CC5)CN(c5cccc7c5C(=O)N(C5CCC(=O)NC5=O)C7=O)C6)CC4)ncc3Cl)ccc2n(C(C)C)c1=O` (stereo not shown) [Compound 169, 2-{[6-({5-chloro-2-[4-({2-[2-(2,6-dioxopiperidin-3-yl)-1,3-dioxo-2,3-dihydro-1H-isoindol-4-yl]-2-azaspiro[3.5]nonan-7-yl}methyl)piperazin-1-yl]pyrimidin-4-yl}amino)-5-fluoro-2-oxo-1-(propan-2-yl)-1,2-dihydroquinolin-3-yl]oxy}-N-methylacetamide] are under 10 nM and at least 70%.
The corresponding values for `CNC(=O)COc1cc2cc(Nc3nc(N4CCC(O[C@H]5C[C@H](N6CCN(c7ccc8c(c7)CN(C7CCC(=O)NC7=O)C8=O)C(C)(C)C6)C5)CC4)ncc3Cl)ccc2n(C(C)C)c1=O` (stereo partly shown) [Compound 170, 2-({6-[(5-chloro-2-{4-[(1r,3r)-3-{4-[2-(2,6-dioxopiperidin-3-yl)-1-oxo-2,3-dihydro-1H-isoindol-5-yl]-3,3-dimethylpiperazin-1-yl}cyclobutoxy]piperidin-1-yl}pyrimidin-4-yl)amino]-2-oxo-1-(propan-2-yl)-1,2-dihydroquinolin-3-yl}oxy)-N-methylacetamide] are under 10 nM and at least 70%.
The corresponding values for `CNC(=O)COc1cc2c(F)c(Nc3nc(N4CCC(CN5CCC6(CN(c7ccc8c(c7)CN(C7CCC(=O)NC7=O)C8=O)C6)C(F)(F)C5)CC4)ncc3Cl)ccc2n(C(C)C)c1=O` (stereo not shown) [Compound 171, 2-{[6-({5-chloro-2-[4-({2-[2-(2,6-dioxopiperidin-3-yl)-1-oxo-2,3-dihydro-1H-isoindol-5-yl]-5,5-difluoro-2,7-diazaspiro[3.5]nonan-7-yl}methyl)piperidin-1-yl]pyrimidin-4-yl}amino)-5-fluoro-2-oxo-1-(propan-2-yl)-1,2-dihydroquinolin-3-yl]oxy}-N-methylacetamide] are under 10 nM and at least 70%.
Consider `CNC(=O)COc1cc2c(F)c(Nc3nc(N4CCC(O[C@H]5C[C@H](N6CCC(c7ccc8c(c7)C(=O)N(C7CCC(=O)NC7=O)C8=O)CC6)C5)CC4)ncc3Cl)ccc2n(C(C)C)c1=O` (stereo partly shown) [Compound 172, 2-({6-[(5-chloro-2-{4-[(1r,3r)-3-{4-[2-(2,6-dioxopiperidin-3-yl)-1,3-dioxo-2,3-dihydro-1H-isoindol-5-yl]piperidin-1-yl}cyclobutoxy]piperidin-1-yl}pyrimidin-4-yl)amino]-5-fluoro-2-oxo-1-(propan-2-yl)-1,2-dihydroquinolin-3-yl}oxy)-N-methylacetamide], for which the DC50 is under 10 nM and the Dmax was at least 70%.
Turning to `CNC(=O)COc1cc2c(F)c(Nc3nc(N4CCC(O[C@H]5C[C@H](N6CCC(c7ccc8c(c7F)CN(C7CCC(=O)NC7=O)C8=O)CC6)C5)CC4)ncc3Cl)ccc2n(C(C)C)c1=O` (stereo partly shown) [Compound 173], the DC50 was under 10 nM and the Dmax was at least 70%.
The corresponding values for `CNC(=O)COc1cc2cc(Nc3nc(N4CCC(O[C@H]5C[C@H](N6C[C@@H](C)N(c7ccc8c(c7)CN(C7CCC(=O)NC7=O)C8=O)[C@@H](C)C6)C5)CC4)ncc3Cl)ccc2n(C(C)C)c1=O` (stereo partly drawn) [Compound 174, 2-({6-[(5-chloro-2-{4-[(1r,3r)-3-[(3R,5S)-4-[2-(2,6-dioxopiperidin-3-yl)-1-oxo-2,3-dihydro-1H-isoindol-5-yl]-3,5-dimethylpiperazin-1-yl]cyclobutoxy]piperidin-1-yl}pyrimidin-4-yl)amino]-2-oxo-1-(propan-2-yl)-1,2-dihydroquinolin-3-yl}oxy)-N-methylacetamide] are under 10 nM and at least 70%.
Turning to `CNC(=O)COc1cc2cc(Nc3nc(N4CCC(O[C@H]5C[C@H](N6CCN(c7ccc8c(c7F)CN(C7CCC(=O)NC7=O)C8=O)[C@H](C)C6)C5)CC4)ncc3Cl)ccc2n(C(C)C)c1=O` (stereo partly shown) [Compound 175], the 50% degradation concentration (DC50) was under 10 nM and the maximal degradation (Dmax) was at least 70%.
For `CNC(=O)COc1cc2cc(Nc3nc(N4CCC(O[C@H]5C[C@H](N6CCN(c7ccc8c(c7C)C(=O)N(C7CCC(=O)NC7=O)C8=O)CC6)C5)CC4)ncc3Cl)ccc2n(C(C)C)c1=O` (stereo partly shown) [Compound 177, 2-({6-[(5-chloro-2-{4-[(1r,3r)-3-{4-[2-(2,6-dioxopiperidin-3-yl)-4-methyl-1,3-dioxoisoindol-5-yl]piperazin-1-yl}cyclobutoxy]piperidin-1-yl}pyrimidin-4-yl)amino]-1-isopropyl-2-oxoquinolin-3-yl}oxy)-N-methylacetamide], in that order: under 10 nM and at least 70%.
As for `CNC(=O)COc1cc2cc(Nc3nc(N4CCC(O[C@H]5C[C@H](N6CCN(c7ccc8c(c7F)CN(C7CCC(=O)NC7=O)C8=O)C[C@@H]6C)C5)CC4)ncc3Cl)ccc2n(C(C)C)c1=O` (stereo partly shown) [Compound 178], the DC50 was under 10 nM and the Dmax was at least 70%.
The corresponding values for `CNC(=O)COc1cc2cc(Nc3nc(N4CCC(O[C@H]5C[C@H](N6CCN(c7ccc8c(c7Cl)CN(C7CCC(=O)NC7=O)C8=O)CC6)C5)CC4)ncc3Cl)ccc2n(C(C)C)c1=O` (stereo partly shown) [Compound 181, 2-({6-[(5-chloro-2-{4-[(1r,3r)-3-{4-[4-chloro-2-(2,6-dioxopiperidin-3-yl)-1-oxo-2,3-dihydro-1H-isoindol-5-yl]piperazin-1-yl}cyclobutoxy]piperidin-1-yl}pyrimidin-4-yl)amino]-2-oxo-1-(propan-2-yl)-1,2-dihydroquinolin-3-yl}oxy)-N-methylacetamide] are under 10 nM and at least 70%.
For `CNC(=O)COc1cc2cc(Nc3nc(N4CCC(O[C@H]5C[C@H](N6CCN(c7ccc8c(c7F)CN(C7CCC(=O)NC7=O)C8=O)C[C@H]6C)C5)CC4)ncc3Cl)ccc2n(C(C)C)c1=O` (stereo partly shown) [Compound 182], in that order: under 10 nM and at least 70%.
